Test results reported in article PMC7515484, “Sphingosine kinase 2 inhibitor ABC294640 suppresses neuronal excitability and inhibits multiple endogenously and exogenously expressed voltage-gated ion channels in cultured cells” (Channels, 2020).

What was measured:
[1] = molecular target: T1, KV1.4 (Homo sapiens, UniProt P22459); experiment: whole-cell patch clamp, persistent current, transfected HEK293T cells; format: cell-based
T1 construct: gene KCNA4; human KCNA4 cDNA in pCMV3, expressed in HEK293T cells

[2] = molecular target: T2, KV4.2 (Homo sapiens, UniProt Q9NZV8); experiment: as above; format: cell-based
T2 construct: gene KCND2
T2 sequence (Q9NZV8 1-630): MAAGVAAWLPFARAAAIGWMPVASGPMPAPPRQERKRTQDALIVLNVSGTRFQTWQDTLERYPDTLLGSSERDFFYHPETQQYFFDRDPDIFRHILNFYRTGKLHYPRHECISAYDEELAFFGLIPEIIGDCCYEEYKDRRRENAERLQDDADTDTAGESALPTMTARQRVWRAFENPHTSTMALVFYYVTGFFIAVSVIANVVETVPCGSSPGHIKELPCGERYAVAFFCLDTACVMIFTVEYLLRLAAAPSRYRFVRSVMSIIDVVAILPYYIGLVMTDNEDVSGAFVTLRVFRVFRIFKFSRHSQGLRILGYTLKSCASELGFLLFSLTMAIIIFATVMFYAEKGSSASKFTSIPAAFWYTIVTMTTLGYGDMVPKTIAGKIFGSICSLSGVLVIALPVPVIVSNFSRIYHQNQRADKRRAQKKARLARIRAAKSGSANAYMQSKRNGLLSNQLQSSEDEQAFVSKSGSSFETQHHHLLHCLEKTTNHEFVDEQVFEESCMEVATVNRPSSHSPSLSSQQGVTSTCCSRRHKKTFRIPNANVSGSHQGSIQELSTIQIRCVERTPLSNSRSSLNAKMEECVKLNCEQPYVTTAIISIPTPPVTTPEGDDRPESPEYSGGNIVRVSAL

T1 sequence (P22459 whole entry): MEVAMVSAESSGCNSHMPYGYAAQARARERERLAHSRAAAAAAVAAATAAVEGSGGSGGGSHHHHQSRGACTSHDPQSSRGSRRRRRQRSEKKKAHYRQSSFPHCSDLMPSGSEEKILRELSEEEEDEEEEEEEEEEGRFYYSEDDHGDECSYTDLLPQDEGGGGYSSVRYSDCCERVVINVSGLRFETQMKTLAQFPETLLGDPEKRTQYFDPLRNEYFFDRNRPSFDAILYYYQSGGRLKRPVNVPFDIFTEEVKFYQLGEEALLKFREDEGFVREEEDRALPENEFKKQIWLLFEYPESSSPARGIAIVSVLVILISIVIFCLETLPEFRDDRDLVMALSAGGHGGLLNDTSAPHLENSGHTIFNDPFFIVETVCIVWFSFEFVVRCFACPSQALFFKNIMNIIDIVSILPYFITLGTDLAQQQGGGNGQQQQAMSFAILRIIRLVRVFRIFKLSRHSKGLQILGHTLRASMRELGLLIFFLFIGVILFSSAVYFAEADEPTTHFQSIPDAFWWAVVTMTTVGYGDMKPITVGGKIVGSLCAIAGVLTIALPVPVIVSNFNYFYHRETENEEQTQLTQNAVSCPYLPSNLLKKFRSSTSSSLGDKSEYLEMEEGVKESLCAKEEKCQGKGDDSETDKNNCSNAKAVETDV

- IC50 [1]: 2.76 ± 0.28 µM
- IC50 [2]: 4.77 ± 0.68 µM
Compound: O=C(NCc1ccncc1)C12CC3CC(C1)CC(c1ccc(Cl)cc1)(C3)C2 [ABC294640]
